Reference: patent US6737383B1, “Herbicidal oxadiazolidines” (priority 1999, dated 2004)

Columns and labels:
[1] = tested on: morningglory; experiment: Test B pre/postemergence morningglory; assay type: in vivo, Ipomoea hederacea
In short: (§1)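 Response is a visual 0-to-10 score relative to untreated plants, where 0 means no effect and 10 means complete control, taken twelve to sixteen days after application. Treatments went onto soil at planting and onto foliage of 1- to 4-leaf plants, using a surfactant-containing non-phytotoxic solvent.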

[2] = tested on: pigweed; experiment: Test B pre/postemergence pigweed; assay type: in vivo, Amaranthus retroflexus
In short: as §1

[3] = tested on: wild oat; experiment: Test B pre/postemergence wild oat; assay type: in vivo, Avena fatua
In short: as §1

[4] = Postemergence, Rate 125 g/ha, scale of 0 to 10 where 0 is no effect and 10 is complete control
[5] = Postemergence, Rate 250 g/ha, scale of 0 to 10, 0 is no effect, 10 is complete control
[6] = Postemergence, Rate 500 g/ha, scale of 0 to 10 where 0 is no effect and 10 is complete control
[7] = Postemergence, Rate 1000 g/ha, scale 0 to 10 (0 no effect, 10 complete control)
[8] = Preemergence, Rate 125 g/ha, scale of 0 to 10 where 0 is no effect and 10 is complete control
[9] = Preemergence, Rate 250 g/ha, scale 0 to 10 (0 no effect, 10 complete control)
[10] = Preemergence, Rate 500 g/ha, scale of 0 to 10 where 0 is no effect and 10 is complete control
[11] = Rate 1000 g/ha, Preemergence, scale 0 to 10 (0 no effect, 10 complete control)
[12] = Postemergence, Rate 62 g/ha, scale 0 to 10, 0 is no effect, 10 is complete control
[13] = Preemergence, Rate 250 g/ha, scale 0 (no effect) to 10 (complete control)
[14] = Rate 62 g/ha, Preemergence, scale 0 to 10
[15] = Rate 250 g/ha, Postemergence, scale 0 to 10, 0 is no effect, 10 is complete control
[16] = Rate 500 g/ha, Postemergence, scale 0 to 10, 0 is no effect, 10 is complete control
[17] = Rate 500 g/ha, Preemergence, scale 0 to 10 (0 no effect, 10 complete control)
[18] = Preemergence, Rate 62 g/ha, scale of 0 to 10 where 0 is no effect and 10 is complete control
[19] = Preemergence, Rate 250 g/ha, scale of 0 to 10 where 0 is no effect and 10 is complete control
[20] = Rate 62 g/ha, Postemergence, scale of 0 to 10 where 0 is no effect and 10 is complete control
[21] = Rate 125 g/ha, Postemergence, scale 0 to 10
[22] = Rate 125 g/ha, Preemergence, scale of 0 to 10 where 0 is no effect and 10 is complete control
[23] = Rate 500 g/ha, Postemergence, scale 0 to 10, 0 no effect, 10 complete control

COC(=O)C(C)n1c(=O)on(C(=O)N(c2ccc(F)cc2)C(C)C)c1=O (centres unmarked) [Compound 616]
Plant response rating, Morningglory [1, 4]: 0
Morningglory plant response rating [1, 5]: 4
Plant response rating, Morningglory [1, 6]: 10
Morningglory plant response rating [1, 7]: 10
Morningglory plant response rating [1, 8]: 0
Plant response rating, Morningglory [1, 9]: 0
Plant response rating, Morningglory [1, 10]: 0
Plant response rating, Morningglory [1, 11]: 0
Plant response rating, Redroot pigweed [2, 4]: 0
Redroot pigweed plant response rating [2, 5]: 0
Plant response rating, Redroot pigweed [2, 6]: 1
Redroot pigweed plant response rating [2, 7]: 3
Redroot pigweed plant response rating [2, 8]: 1
Plant response rating, Redroot pigweed [2, 9]: 8
Plant response rating, Redroot pigweed [2, 10]: 10
Plant response rating, Redroot pigweed [2, 11]: 10
Plant response rating, Wild oats [3, 4]: 0
Wild oats plant response rating [3, 5]: 0
Plant response rating, Wild oats [3, 6]: 0
Wild oats plant response rating [3, 8]: 0
Plant response rating, Wild oats [3, 9]: 0
Plant response rating, Wild oats [3, 10]: 2
Plant response rating, Wild oats [3, 11]: 10

CC(C)N(C(=O)n1oc(=O)n(CC2=NOCCO2)c1=O)c1ccc(Cl)cc1 [Compound 740]
Plant response rating, Morningglory [1, 12]: 2
Morningglory plant response rating [1, 4]: 3
Plant response rating, Morningglory [1, 8]: 0
Morningglory plant response rating [1, 13]: 0
Morningglory plant response rating [1, 14]: 0
Morningglory plant response rating [1, 15]: 3
Morningglory plant response rating [1, 16]: 7
Morningglory plant response rating [1, 17]: 0
Plant response rating, Redroot pigweed [2, 12]: 0
Redroot pigweed plant response rating [2, 4]: 2
Plant response rating, Redroot pigweed [2, 8]: 9
Redroot pigweed plant response rating [2, 13]: 9
Redroot pigweed plant response rating [2, 14]: 3
Redroot pigweed plant response rating [2, 15]: 4
Redroot pigweed plant response rating [2, 16]: 8
Redroot pigweed plant response rating [2, 17]: 10
Plant response rating, Wild oats [3, 12]: 0
Wild oats plant response rating [3, 4]: 0
Plant response rating, Wild oats [3, 8]: 0
Wild oats plant response rating [3, 13]: 2
Wild oats plant response rating [3, 14]: 0
Wild oats plant response rating [3, 15]: 0
Wild oats plant response rating [3, 16]: 0
Wild oats plant response rating [3, 17]: 6

CON=C(Cn1c(=O)on(C(=O)N(c2ccc(F)cc2)C(C)C)c1=O)C(F)(F)F [Compound 227]
Morningglory plant response rating [1, 18]: 0
Morningglory plant response rating [1, 19]: 0
Plant response rating, Morningglory [1, 10]: 0
Morningglory plant response rating [1, 20]: 4
Morningglory plant response rating [1, 21]: 4
Morningglory plant response rating [1, 22]: 0
Plant response rating (0 to 10; 0 is no effect, 10 is complete control), Morningglory ([1]; Rate 250 g/ha, Postemergence): 8
Morningglory plant response rating [1, 23]: 10
Redroot pigweed plant response rating [2, 18]: 3
Redroot pigweed plant response rating [2, 19]: 10
Plant response rating, Redroot pigweed [2, 10]: 10
Redroot pigweed plant response rating [2, 20]: 0
Redroot pigweed plant response rating [2, 21]: 2
Redroot pigweed plant response rating [2, 22]: 5
Plant response rating (0 to 10; 0 is no effect, 10 is complete control), Redroot pigweed ([2]; Rate 250 g/ha, Postemergence): 5
Redroot pigweed plant response rating [2, 23]: 7
Wild oats plant response rating [3, 18]: 0
Wild oats plant response rating [3, 19]: 3
Plant response rating, Wild oats [3, 10]: 3
Wild oats plant response rating [3, 20]: 0
Wild oats plant response rating [3, 21]: 0
Wild oats plant response rating [3, 22]: 0
Plant response rating (0 to 10; 0 is no effect, 10 is complete control), Wild oats ([3]; Rate 250 g/ha, Postemergence): 0
Wild oats plant response rating [3, 23]: 2
